# Publication PMC12281424, “A Rac-specific competitive inhibitor of guanine nucleotide binding reduces metastasis in triple-negative breast cancer” (Cell Reports Medicine, 2025)
# Tests used:
# Fer(h) = Fer(h) (Homo sapiens, UniProt P16591); experiment: Kinase Profiler; assay type: biochemical
# Procedure: (§1) The kinase profiler was performed by the company Eurofins (Discovery, Panlab and Cerep).
# DDR1(h) = DDR1(h) (Homo sapiens, UniProt Q08345); experiment: Kinase Profiler; assay type: biochemical
# Procedure: (§2) Blood cell counts, kinase profiler, safety screen, bacterial cytotoxicity, Ames, micronucleus assays were performed by the company Eurofins (France). The kinase profiler was performed by the company Eurofins (Discovery, Panlab and Cerep).
# MLK3(h) = MLK3(h) (Homo sapiens, UniProt Q16584); experiment: Kinase Profiler; assay type: biochemical
# Procedure: as §2
# NEK3(h) = NEK3(h) (Homo sapiens, UniProt P51956); experiment: Kinase Profiler; assay type: biochemical
# Procedure: as §1
# TLK2(h) = TLK2(h) (Homo sapiens, UniProt Q86UE8); experiment: Kinase Profiler; assay type: biochemical
# Procedure: as §1
# PI3K (p110b/p85a)(h) = PI3K (p110b/p85a)(h) (Homo sapiens, UniProt P42338); experiment: Kinase Profiler; assay type: biochemical
# Procedure: as §2
# JNK1α1(h) = JNK1α1(h) (Homo sapiens, UniProt P45983); experiment: Kinase Profiler; assay type: biochemical
# Procedure: as §1
# Blk(h) = Blk(h) (Homo sapiens, UniProt P51451); experiment: Kinase Profiler; assay type: biochemical
# Procedure: as §2
# TA1535 = experiment: Ames fluctuation test (5th group); assay type: cell-based
# Source text: Data S3. Ames-fluctuation assay-A41.
# Test Concentration Count Positive Significance Fisher Exact Test
# Plk1(h) = Plk1(h) (Homo sapiens, UniProt P53350); experiment: Kinase Profiler; assay type: biochemical
# Procedure: as §1
# PKCη(h) = PKCη(h) (Homo sapiens, UniProt P24723); experiment: Kinase Profiler; assay type: biochemical
# Procedure: as §1
# PKR(h) = PKR(h) (Homo sapiens, UniProt P19525); experiment: Kinase Profiler; assay type: biochemical
# Procedure: as §1
# Hck(h) activated = Hck(h) activated (Homo sapiens, UniProt P08631); experiment: Kinase Profiler; assay type: biochemical
# Procedure: as §1
# PRK2(h) = PRK2(h) (Homo sapiens, UniProt Q16513); experiment: Kinase Profiler; assay type: biochemical
# Procedure: as §1
# PDHK2(h) = PDHK2(h) (Homo sapiens, UniProt Q15119); experiment: Kinase Profiler; assay type: biochemical
# Procedure: as §2
# CDK4/cyclinD3(h) = CDK4/cyclinD3(h) (Homo sapiens, UniProt P11802); experiment: Kinase Profiler; assay type: biochemical
# Sequence of CDK4/cyclinD3(h) (P11802 whole entry): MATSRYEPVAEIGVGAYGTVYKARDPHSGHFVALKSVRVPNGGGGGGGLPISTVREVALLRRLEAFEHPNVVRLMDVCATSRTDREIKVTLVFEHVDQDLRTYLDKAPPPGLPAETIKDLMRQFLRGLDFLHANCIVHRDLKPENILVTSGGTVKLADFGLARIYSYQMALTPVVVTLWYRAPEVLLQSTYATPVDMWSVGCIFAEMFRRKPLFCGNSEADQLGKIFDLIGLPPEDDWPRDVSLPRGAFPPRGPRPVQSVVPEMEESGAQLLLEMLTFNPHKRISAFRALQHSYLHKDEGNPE
# Sequence of CDK4/cyclinD3(h) (P30281 whole entry partner): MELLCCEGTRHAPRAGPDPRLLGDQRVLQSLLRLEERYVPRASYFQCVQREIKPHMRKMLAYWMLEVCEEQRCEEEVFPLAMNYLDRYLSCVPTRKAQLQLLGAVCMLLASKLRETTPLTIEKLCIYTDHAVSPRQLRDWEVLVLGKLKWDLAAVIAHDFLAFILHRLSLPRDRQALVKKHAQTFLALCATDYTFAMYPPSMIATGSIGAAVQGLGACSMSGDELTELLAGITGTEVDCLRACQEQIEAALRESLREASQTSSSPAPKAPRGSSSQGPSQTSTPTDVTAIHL
# Procedure: as §2
# Sequence of Plk1(h) (P53350 whole entry): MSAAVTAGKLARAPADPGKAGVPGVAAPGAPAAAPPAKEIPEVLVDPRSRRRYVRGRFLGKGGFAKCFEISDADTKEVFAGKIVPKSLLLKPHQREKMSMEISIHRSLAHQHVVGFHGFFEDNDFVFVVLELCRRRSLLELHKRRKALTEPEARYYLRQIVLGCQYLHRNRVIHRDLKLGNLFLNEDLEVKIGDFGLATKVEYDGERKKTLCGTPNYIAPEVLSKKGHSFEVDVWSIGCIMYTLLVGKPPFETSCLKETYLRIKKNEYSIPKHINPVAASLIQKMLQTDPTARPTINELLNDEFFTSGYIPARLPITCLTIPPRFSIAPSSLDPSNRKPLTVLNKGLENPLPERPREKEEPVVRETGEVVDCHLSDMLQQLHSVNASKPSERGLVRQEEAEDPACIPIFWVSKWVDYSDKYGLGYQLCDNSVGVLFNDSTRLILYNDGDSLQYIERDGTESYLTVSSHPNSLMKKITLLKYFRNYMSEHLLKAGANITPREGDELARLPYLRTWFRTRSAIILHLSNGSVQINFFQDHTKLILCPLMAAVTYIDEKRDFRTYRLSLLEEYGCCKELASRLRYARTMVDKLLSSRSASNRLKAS
# Sequence of PRK2(h) (Q16513 whole entry): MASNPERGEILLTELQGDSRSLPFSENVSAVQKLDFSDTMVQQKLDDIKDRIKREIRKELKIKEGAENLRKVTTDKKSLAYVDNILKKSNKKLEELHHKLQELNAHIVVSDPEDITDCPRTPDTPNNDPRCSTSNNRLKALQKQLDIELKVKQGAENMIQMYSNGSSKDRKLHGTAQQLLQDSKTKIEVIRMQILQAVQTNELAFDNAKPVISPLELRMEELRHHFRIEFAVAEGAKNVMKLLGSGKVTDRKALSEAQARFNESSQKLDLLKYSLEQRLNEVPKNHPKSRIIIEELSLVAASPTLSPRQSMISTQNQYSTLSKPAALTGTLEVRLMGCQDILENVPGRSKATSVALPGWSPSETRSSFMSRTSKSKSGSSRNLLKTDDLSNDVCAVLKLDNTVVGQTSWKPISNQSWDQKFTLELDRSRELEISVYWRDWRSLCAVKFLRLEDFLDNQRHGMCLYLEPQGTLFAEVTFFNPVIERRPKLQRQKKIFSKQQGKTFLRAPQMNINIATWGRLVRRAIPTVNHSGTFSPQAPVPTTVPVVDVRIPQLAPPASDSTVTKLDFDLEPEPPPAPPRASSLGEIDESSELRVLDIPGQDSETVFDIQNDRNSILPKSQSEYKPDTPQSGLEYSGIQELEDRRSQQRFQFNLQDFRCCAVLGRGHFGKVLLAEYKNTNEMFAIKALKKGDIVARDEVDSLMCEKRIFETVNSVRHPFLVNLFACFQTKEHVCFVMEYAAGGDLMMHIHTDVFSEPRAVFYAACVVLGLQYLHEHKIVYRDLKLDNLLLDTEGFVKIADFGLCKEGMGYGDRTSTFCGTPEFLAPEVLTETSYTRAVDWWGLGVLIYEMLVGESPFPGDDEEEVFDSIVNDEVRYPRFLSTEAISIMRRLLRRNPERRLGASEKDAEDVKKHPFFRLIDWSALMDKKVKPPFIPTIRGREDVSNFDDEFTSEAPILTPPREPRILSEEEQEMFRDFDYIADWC
# Sequence of JNK1α1(h) (P45983 1-384 isoform P45983-2): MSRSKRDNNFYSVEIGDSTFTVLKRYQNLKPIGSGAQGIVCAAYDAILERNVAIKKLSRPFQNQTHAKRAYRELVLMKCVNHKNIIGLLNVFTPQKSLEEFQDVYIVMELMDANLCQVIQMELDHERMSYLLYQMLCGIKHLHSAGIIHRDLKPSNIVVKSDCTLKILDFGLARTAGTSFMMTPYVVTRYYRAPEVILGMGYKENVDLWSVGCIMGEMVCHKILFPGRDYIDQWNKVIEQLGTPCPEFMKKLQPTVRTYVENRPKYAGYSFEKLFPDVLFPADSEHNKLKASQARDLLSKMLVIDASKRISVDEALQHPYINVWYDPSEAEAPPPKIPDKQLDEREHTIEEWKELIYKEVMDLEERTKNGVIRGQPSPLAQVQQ
# Sequence of NEK3(h) (P51956 whole entry): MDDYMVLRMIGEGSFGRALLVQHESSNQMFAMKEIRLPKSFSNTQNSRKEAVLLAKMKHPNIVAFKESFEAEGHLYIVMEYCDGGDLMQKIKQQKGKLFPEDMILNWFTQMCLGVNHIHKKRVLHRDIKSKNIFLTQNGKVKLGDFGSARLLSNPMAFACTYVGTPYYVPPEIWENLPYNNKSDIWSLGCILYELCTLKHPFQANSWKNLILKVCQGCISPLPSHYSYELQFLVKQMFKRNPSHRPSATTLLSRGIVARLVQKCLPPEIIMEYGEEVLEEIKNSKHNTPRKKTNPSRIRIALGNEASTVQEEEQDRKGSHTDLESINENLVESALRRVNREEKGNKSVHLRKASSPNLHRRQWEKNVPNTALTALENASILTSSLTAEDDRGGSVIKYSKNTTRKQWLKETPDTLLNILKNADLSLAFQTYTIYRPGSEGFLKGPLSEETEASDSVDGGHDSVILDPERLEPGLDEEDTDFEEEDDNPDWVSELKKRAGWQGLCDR
# Sequence of PKCη(h) (P24723 whole entry): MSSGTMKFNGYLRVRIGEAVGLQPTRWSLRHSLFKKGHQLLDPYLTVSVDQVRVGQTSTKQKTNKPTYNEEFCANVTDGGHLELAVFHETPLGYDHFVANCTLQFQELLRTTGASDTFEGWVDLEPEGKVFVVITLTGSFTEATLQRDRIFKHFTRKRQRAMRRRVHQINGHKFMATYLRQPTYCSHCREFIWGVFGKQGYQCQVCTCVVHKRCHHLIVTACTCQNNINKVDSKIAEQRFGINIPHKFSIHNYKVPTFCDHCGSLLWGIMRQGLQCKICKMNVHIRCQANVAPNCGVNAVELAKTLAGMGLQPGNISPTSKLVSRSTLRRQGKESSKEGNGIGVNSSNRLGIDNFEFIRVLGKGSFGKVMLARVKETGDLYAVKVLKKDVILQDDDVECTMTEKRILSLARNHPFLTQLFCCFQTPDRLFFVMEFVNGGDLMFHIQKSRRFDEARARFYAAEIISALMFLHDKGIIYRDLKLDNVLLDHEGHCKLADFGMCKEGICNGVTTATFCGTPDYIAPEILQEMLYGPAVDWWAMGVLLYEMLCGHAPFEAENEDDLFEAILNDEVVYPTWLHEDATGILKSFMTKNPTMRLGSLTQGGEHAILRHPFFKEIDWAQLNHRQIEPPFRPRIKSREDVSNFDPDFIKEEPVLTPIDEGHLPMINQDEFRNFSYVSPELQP
# Sequence of Blk(h) (P51451 whole entry): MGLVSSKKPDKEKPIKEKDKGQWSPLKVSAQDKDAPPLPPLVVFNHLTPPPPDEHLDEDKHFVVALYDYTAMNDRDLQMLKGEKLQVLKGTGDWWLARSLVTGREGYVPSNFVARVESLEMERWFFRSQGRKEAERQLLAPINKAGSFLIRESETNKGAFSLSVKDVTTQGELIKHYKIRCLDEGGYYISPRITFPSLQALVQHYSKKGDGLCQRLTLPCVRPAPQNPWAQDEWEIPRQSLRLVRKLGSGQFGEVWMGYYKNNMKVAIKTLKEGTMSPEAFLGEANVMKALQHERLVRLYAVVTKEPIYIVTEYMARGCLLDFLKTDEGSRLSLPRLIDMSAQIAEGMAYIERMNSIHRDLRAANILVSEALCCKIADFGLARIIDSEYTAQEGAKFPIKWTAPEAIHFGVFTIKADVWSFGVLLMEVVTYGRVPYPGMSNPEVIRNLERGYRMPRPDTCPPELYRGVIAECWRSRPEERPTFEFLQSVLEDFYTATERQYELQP
# Sequence of PKR(h) (P19525 whole entry): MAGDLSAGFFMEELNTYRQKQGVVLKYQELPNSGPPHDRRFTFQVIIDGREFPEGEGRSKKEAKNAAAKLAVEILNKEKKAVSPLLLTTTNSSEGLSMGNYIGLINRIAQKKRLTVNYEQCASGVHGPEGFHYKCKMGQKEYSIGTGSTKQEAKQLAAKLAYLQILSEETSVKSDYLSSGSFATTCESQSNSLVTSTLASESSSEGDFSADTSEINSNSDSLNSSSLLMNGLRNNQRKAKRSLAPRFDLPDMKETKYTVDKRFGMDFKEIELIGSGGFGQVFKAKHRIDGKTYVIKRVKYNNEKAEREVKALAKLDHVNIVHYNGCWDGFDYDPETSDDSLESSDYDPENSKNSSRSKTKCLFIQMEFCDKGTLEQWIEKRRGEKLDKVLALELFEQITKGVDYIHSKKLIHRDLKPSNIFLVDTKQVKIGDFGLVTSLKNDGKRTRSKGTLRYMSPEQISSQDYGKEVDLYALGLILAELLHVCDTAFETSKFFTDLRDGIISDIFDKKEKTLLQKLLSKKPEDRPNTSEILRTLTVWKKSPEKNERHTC
smiles,measurement,setting,value
COc1ccc(OC)c(NS(=O)(=O)c2ccc(NC(=O)CCSc3ccc(C)cc3)cc2)c1 [Compound A41],Activity(%),Fer(h),114%
same,Activity(%),DDR1(h),116%
same,Activity(%),MLK3(h),115%
same,Activity(%),NEK3(h),107%
same,Activity(%),TLK2(h),101%
same,Activity(%),PI3K (p110b/p85a)(h),101%
same,Activity(%),JNK1α1(h),94%
same,Activity(%),Blk(h),99%
same,Count Positive (# of wells),"TA1535; - S9, 1.0E-04 M",0
same,Count Positive (# of wells),"TA1535; - S9, 1.0E-05 M",2
same,Count Positive (# of wells),"TA1535; - S9, 5.0E-05 M",0
same,Count Positive (# of wells),"TA1535; - S9, 5.0E-06 M",0
same,Activity(%),Plk1(h),106%
same,Activity(%),PKCη(h),118%
same,Activity(%),PKR(h),101%
same,Activity(%),Hck(h) activated,102%
same,Activity(%),PRK2(h),110%
same,Activity(%),PDHK2(h),96%
same,Activity(%),CDK4/cyclinD3(h),96%
